Measurements reported in paper PMC8535490, “Biotransformation of Flavonoids Improves Antimicrobial and Anti-Breast Cancer Activities In Vitro” (Foods, 2021).
Values after ≈ are worked out from the molar mass of the structure shown. Where two headings read alike, the source gives them in different places.

Columns and labels:
[1] = test system: MCF-7 human breast cancer cells; experiment: Cytotoxicity, methylene blue assay; assay type: cell-based; details: at a concentration corresponding to the IC50 (hesperetin 150 μM), 24 h
Procedure: (§1) Analysis of the antiproliferative activity of the test compounds was performed according to Zhu et al., with some modifications. MCF-7 human breast cancer cells were provided by the Cell Resource Center of the Chinese Academy of Sciences (Shanghai, China). Cell proliferation and cytotoxicity of anticancer activity were assessed using the methylene blue assay. For cell proliferation and cytotoxicity, MCF-7 cells were culture in a 96-well plate at 1.5 × 10^5 cells/well and at 3 × 10^5 cells/well, respectively. Various concentrations (75–400 µM) of the test samples were added to a growth medium containing MCF-7 cells followed by cultivation for […]. Following incubation for 72 h, cell proliferation was measured with an absorbance of 570 nm using a microplate reader (Bio-Rad, Hercules, MA, USA), while cell cytotoxicity measurement was carried out 24 h after incubation.

E. coli ATCC25922 = experiment: Antimicrobial activity assay (broth culture in 96-well plate, CCK8 staining, MIC/MBC); assay type: cell-based, Escherichia coli; details: for Growth inhibition / MBC / MIC: E. coli ATCC25922; for MBC / MIC: Escherichia coli, tested at 15–400 µM
Procedure: (§2) Antimicrobial biological activities of the tested compounds were evaluated as Zhong et al., with some modifications. Gram-positive and -negative bacteria and fungi (S. aureus ATCC6538, E. coli ATCC25922, and C. albicans SC5314) were selected for evaluation in the present study. S. aureus ATCC6538 and E. coli ATCC25922 were cultured with Luria-Bertani medium, while for C. albicans SC5314, potato dextrose broth medium was used for 24 h at 37 °C (bacterial suspension in 1 × 10^6 CFU/mL). […] Each strain was, respectively, transferred into a 96-well plate at 100 µL/well (90 µL bacterial suspension and 10 µL sample solution) after adding different concentrations of samples, followed by incubation for 12–16 h. The optical density at 650 nm (OD650) of C. albicans SC5314 was measured after TTC staining, while S. aureus ATCC6538 and E. coli ATCC25922 were stained for CCK8 before measurement.

C. albicans SC5314 = experiment: Antimicrobial activity assay (broth culture in 96-well plate, TTC staining, MIC/MBC); assay type: cell-based, Candida albicans; details: for MIC / MBC: tested at 15–400 µM
Procedure: as §2

[2] = test system: MCF-7 human breast cancer cells; experiment: Antiproliferative activity, methylene blue assay; assay type: cell-based; details: MCF-7 cells; for IC50: 72 h, mean ± SD, n = 3; for Increase in antiproliferation potency compared to unmethylated substrate: ratio of IC50 values
Procedure: as §1

S. aureus ATCC6538 = experiment: Antimicrobial activity assay (broth culture in 96-well plate, CCK8 staining, MIC/MBC); assay type: cell-based, Staphylococcus aureus; details: for Growth inhibition: S. aureus ATCC 6538; for MBC / MIC: S. aureus ATCC6538, tested at 15–400 µM
Procedure: as §2

[3] = Candida albicans, C. albicans SC5314
[4] = Candida albicans, C. albicans SC5314, read-out: MBC

Molecule	Cytotoxicity on MCF-7 cells [1]	Growth inhibition (E. coli ATCC25922)	MIC (C. albicans SC5314; [3]) [µM]	MBC (C. albicans SC5314; [4]) [µM]	IC50 ([2]; Homo sapiens, MCF7) [µM]	Growth inhibition (S. aureus ATCC6538)	Increase in antiproliferation potency compared to unmethylated substrate [2]	further results
COc1cc(O)c2c(c1)O[C@H](c1ccc(OC)c(O)c1)CC2=O [Compound 3b, 7-methoxy-hesperetin]	lowest	failed to inhibit the growth	25 (≈ 7.91 µg/mL)	> 400	30.7 ± 0.72	failed to inhibit the growth	–	Cytotoxicity on MCF-7 cells ([1]; listed as 7-methoxyhesperetin): No cytotoxicity
COc1cc(O)c2c(c1)O[C@H](c1ccc(OC)c(OC)c1)CC2=O [Compound 3c, 7,3’-dimethoxy-hesperetin]	Slight cytotoxicity	failed to inhibit the growth	75 (≈ 24.8 µg/mL)	> 400	31 ± 1.44	failed to inhibit the growth	–	–
O=C1C[C@@H](c2ccc(O)cc2)Oc2cc(O)cc(O)c21 [Compound 2, naringenin, reference compound]	Slight cytotoxicity	failed to inhibit the growth	75 (≈ 20.4 µg/mL)	> 400	126 ± 2.76	failed to inhibit the growth	–	–
O=C1C[C@@H](c2ccc(O)cc2)Oc2cc(O)ccc21 [Compound 1, liquiritigenin, reference compound]	Slight cytotoxicity	–	25 (≈ 6.41 µg/mL)	> 400	101 ± 1.83	–	–	MBC (E. coli ATCC25922): > 400 µM; MIC (E. coli ATCC25922): 25 µM (≈ 6.41 µg/mL); MBC (S. aureus ATCC6538; Staphylococcus aureus): > 400 µM; MIC (S. aureus ATCC6538; Staphylococcus aureus): 75 µM (≈ 19.2 µg/mL)
COc1ccc([C@@H]2CC(=O)c3c(O)cc(O)cc3O2)cc1O [Compound 3, hesperetin, reference compound]	Slight cytotoxicity	failed to inhibit the growth	75 (≈ 22.7 µg/mL)	> 400	> 150	failed to inhibit the growth	–	–
COc1ccc([C@@H]2CC(=O)c3c(O)cc(O)cc3O2)cc1OC [Compound 3a, 3’-methoxy-hesperetin]	Slight cytotoxicity	failed to inhibit the growth	50 (≈ 15.8 µg/mL)	> 400	10.5 ± 0.45	failed to inhibit the growth	more than 14.35 fold	–
COc1ccc2c(c1)O[C@H](c1ccc(O)cc1)CC2=O [Compound 1a, 7-methoxy-liquiritigenin]	Slight cytotoxicity	–	25 (≈ 6.76 µg/mL)	> 400	11.2 ± 0.6	–	8.99 fold	Increase of antimicrobial activity compared to liquiritigenin (E. coli ATCC25922; E. coli ATCC25922, 400 μM): 54.41%; Increase of inhibitory effect compared to unmethylated counterpart (E. coli ATCC25922; E. coli ATCC25922, 400 μM): 0.54 fold; MBC (E. coli ATCC25922): > 400 µM; MIC (E. coli ATCC25922): 15 µM (≈ 4.05 µg/mL); Increase (MIC) compared to the unmethylated substrate (C. albicans SC5314; C. albicans SC5314): 3 fold; Increase of antimicrobial activity compared to liquiritigenin (C. albicans SC5314; C. albicans SC5314, 200 μM): 765.64%; Increase of inhibitory effect compared to unmethylated counterpart (C. albicans SC5314; C. albicans SC5314, 200 μM): 7.65 fold; MIC (C. albicans SC5314; C. albicans SC5314): 25 µM (≈ 6.76 µg/mL); Increase of antimicrobial activity compared to liquiritigenin (S. aureus ATCC6538; S. aureus ATCC6538, 250 μM): 148.77%; Increase of inhibitory effect compared to unmethylated counterpart (S. aureus ATCC6538; S. aureus ATCC6538, 250 μM): 1.49 fold; MIC (S. aureus ATCC6538): 75 µM (≈ 20.3 µg/mL); MBC (S. aureus ATCC6538; Staphylococcus aureus): > 400 µM; MIC (S. aureus ATCC6538; Staphylococcus aureus): 75 µM (≈ 20.3 µg/mL)
7-methoxy-naringenin [Compound 2a]	highest	failed to inhibit the growth	–	–	–	failed to inhibit the growth	1.34 fold	Cytotoxicity on MCF-7 cells ([1]; listed as 7-methoxynaringenin): Slight cytotoxicity; Increase of highest antimicrobial activity compared to naringenin (C. albicans SC5314; C. albicans SC5314, highest activity): 182.12%; MBC (C. albicans SC5314; C. albicans SC5314): >400 >400 μM; MIC (C. albicans SC5314; C. albicans SC5314): 75 µM; IC50 [2]: 93.6 ± 1.06 µM
